System: Human Pan T Cell (IL-2 release)
Test: IL2 released by human pan T cell upon anti-CD3/anti-CD28 stimulation (ELISA)
Assay type: cell-based
Details: human pan T cells; for maximal fold induction: response of IL-2 over DMSO control, anti-CD3/anti-CD28, 48 hours, ELISA, read-out: IL-2 Max Fold Response; for EC50: IL-2 response, calculated with GraphPad Prism
Procedure, shortened: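 Primary human pan-T cells, negatively isolated from PBMC, plated at 100,000 cells/well and stimulated with immobilized anti-CD3 plus soluble anti-CD28 in presence of test compound at varying concentrations. After 2 days, secreted IL-2 in supernatant quantified by ELISA.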

## COc1cc2c(cc1Nc1ncc(Cl)c(N3CC(C(=O)O)C4(CCCCC4)C3)n1)CN(C)CC2 (stereo not drawn) [Example 167, 2-(5-Chloro-2-((6-methoxy-2-methyl-1,2,3,4-tetrahydroisoquinolin-7-yl)amino)pyrimidin-4-yl)-2-azaspiro[4.5]decane-4-carboxylic acid]
Homo sapiens, T-cell, 48 h, concentration of compound that gives 200% IL-2 response (2 folds) over DMSO control
  EC (2-fold response): 0.1 to 0.5 µM
Homo sapiens, T-cell, 48 h
  maximal fold induction: > 2
Homo sapiens, T-cell
  EC50: 500 to 1000 nM

## COc1cc2c(cc1Nc1ncc(Cl)c(N3CC(C(=O)O)C4(CCCC4)C3)n1)CN(C)CC2 (stereo not drawn) [Example 169, 2-(5-Chloro-2-((6-methoxy-2-methyl-1,2,3,4-tetrahydroisoquinolin-7-yl)amino)pyrimidin-4-yl)-2-azaspiro[4.4]nonane-4-carboxylic acid]
Homo sapiens, T-cell, 48 h
  maximal fold induction: > 2
Homo sapiens, T-cell
  EC50: > 1000 nM
Concentration of compound that gives 200% IL-2 response (2 folds) over DMSO control
  EC2x (nM): ++ (“++”, for higher values than “+++” but less than or equal to 1 μM)

From patent publication US12612424B2, “HPK1 inhibitors and uses thereof” (Regor Pharmaceuticals, Inc., priority 2019, dated 2026)
